In PubChem BioAssay (NCI):
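In this assay, cells in 96-well plates receive the compound at five concentrations for 48 hours. Endpoints are linearly interpolated between the surrounding concentrations. Here, GI50 denotes the concentration required for 50% inhibition of growth. TGI denotes the concentration required for complete inhibition of growth.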

Tests used:
Assay in all cases: NCI tumour cell line growth inhibition, 48 h
NCI-H522 lung = tested on: NCI-H522 lung
SF-295 CNS = tested on: SF-295 CNS
SNB-75 CNS = tested on: SNB-75 CNS
OVCAR-3 ovarian = tested on: OVCAR-3 ovarian
NCI-H226 lung = tested on: NCI-H226 lung
OVCAR-5 ovarian = tested on: OVCAR-5 ovarian
SK-MEL-5 melanoma = tested on: SK-MEL-5 melanoma
SK-MEL-2 melanoma = tested on: SK-MEL-2 melanoma
UACC-62 melanoma = tested on: UACC-62 melanoma
SK-OV-3 ovarian = tested on: SK-OV-3 ovarian
COLO 205 colon = tested on: COLO 205 colon
CAKI-1 renal = tested on: CAKI-1 renal
ACHN renal = tested on: ACHN renal
SF-268 CNS = tested on: SF-268 CNS
OVCAR-8 ovarian = tested on: OVCAR-8 ovarian
HS 578T breast = tested on: HS 578T breast
SF-539 CNS = tested on: SF-539 CNS
CCRF-CEM leukemia = tested on: CCRF-CEM leukemia
SK-MEL-28 melanoma = tested on: SK-MEL-28 melanoma
MOLT-4 leukemia = tested on: MOLT-4 leukemia
HCT-15 colon = tested on: HCT-15 colon
LOX IMVI melanoma = tested on: LOX IMVI melanoma
BT-549 breast = tested on: BT-549 breast
UO-31 renal = tested on: UO-31 renal
OVCAR-4 ovarian = tested on: OVCAR-4 ovarian
MDA-MB-468 breast = tested on: MDA-MB-468 breast
KM12 colon = tested on: KM12 colon
MDA-MB-231 breast = tested on: MDA-MB-231 breast
HCT-116 colon = tested on: HCT-116 colon
HCC-2998 colon = tested on: HCC-2998 colon

## COc1ccc(CN2[C@@H](C(=O)NCc3ccc(C(=O)NO)cc3)Cc3c([nH]c4ccccc34)[C@@H]2C2CC2)cc1
NCI-H522 lung
  TGI: 5.06 µM
SF-295 CNS
  GI50: 2.92 µM
  TGI: 6.05 µM
SNB-75 CNS
  GI50: 1.13 µM
  TGI: 5.68 µM
OVCAR-3 ovarian
  GI50: 3.41 µM
  TGI: 14.7 µM
NCI-H226 lung
  GI50: 3.41 µM
  TGI: 10.1 µM
OVCAR-5 ovarian
  GI50: 1.87 µM
  TGI: 6.05 µM
SK-MEL-5 melanoma
  GI50: 2.6 µM
  TGI: 5.25 µM
SK-MEL-2 melanoma
  GI50: 4.11 µM
  TGI: 12 µM
UACC-62 melanoma
  GI50: 1.55 µM
  TGI: 4.6 µM
SK-OV-3 ovarian
  GI50: 2.87 µM
  TGI: 6.97 µM
COLO 205 colon
  GI50: 3.47 µM
  TGI: 8.03 µM
CAKI-1 renal
  GI50: 2.39 µM
  TGI: 6.73 µM
ACHN renal
  GI50: 3.52 µM
  TGI: 9.33 µM
SF-268 CNS
  GI50: 4.4 µM
  TGI: 13 µM
OVCAR-8 ovarian
  GI50: 2.56 µM
  TGI: 9.71 µM
HS 578T breast
  GI50: 1.85 µM
  TGI: 14.4 µM
SF-539 CNS
  GI50: 2.48 µM
  TGI: 5.71 µM
CCRF-CEM leukemia
  GI50: 0.996 µM
  TGI: > 19.8 µM
SK-MEL-28 melanoma
  GI50: 1.98 µM
  TGI: 5.88 µM
MOLT-4 leukemia
  GI50: 1.85 µM
  TGI: > 19.8 µM
HCT-15 colon
  GI50: 3.75 µM
  TGI: 10.5 µM
LOX IMVI melanoma
  GI50: 2.37 µM
  TGI: 4.81 µM
BT-549 breast
  GI50: 4.99 µM
  TGI: 9.96 µM
UO-31 renal
  GI50: 3 µM
  TGI: 5.72 µM
OVCAR-4 ovarian
  GI50: 4.74 µM
  TGI: > 19.8 µM
MDA-MB-468 breast
  GI50: 1 µM
  TGI: 4.34 µM
KM12 colon
  GI50: 3.51 µM
  TGI: 16.7 µM
MDA-MB-231 breast
  GI50: 2.43 µM
  TGI: 7.52 µM
HCT-116 colon
  GI50: 2.08 µM
  TGI: > 19.8 µM
HCC-2998 colon
  GI50: 2.6 µM
  TGI: 5.59 µM
